In patent US7632972B2, “Compounds and methods for treatment of cancer and modulation of programmed cell death for melanoma and other cancer cells” (The Board of Trustees of the University of Illionis, priority 2003, dated 2009):

Tested on: U-937 cells
Test: High-throughput cell death assay on library members (MTS/PMS)
Type: cell-based, human
Details: library members at 100 μM, 24 hours
Description: A three-tiered system was devised to identify compounds that selectively induce apoptosis in cancer cells. First, all compounds were screened at 100 μM in a high-throughput manner for their ability to induce death in two cancer cell lines, HL-60 (leukemia) and U-937 (lymphoma).
Test compounds were transferred into the wells using a 96-pin transfer apparatus (V & P Scientific, San Diego Calif.) that transfers 0.2 μL of compound. The compounds were made up as 50 mM stock solutions in 100% EtOH, so one transfer gave a final concentration of 100 μM. Controls were performed in which only EtOH (containing no compound) was pin-transferred into wells containing cells. The cells were incubated with the compounds for 24 hours, and then cell death was quantitated.

Structure (SMILES) | Induction of death in U-937 cells (percentages of cell death) [%]
COc1cc(/C=C/C(=O)NC[C@@H](OC)c2ccc(O)cc2)cc(OC)c1O [Compound 9-G] | −7
COc1ccc(/C=C/C(=O)NCCc2ccc(O)cc2)cc1O [Compound 17-E] | 18
COc1cccc(/C=C/C(=O)NC[C@@H](O)c2ccc(O)cc2)c1 [Compound 13-H] | 43
COc1cc(/C=C/C(=O)NCCc2ccc(O)cc2)cc(OC)c1O [Compound 17-G] | 26
COc1cc(/C=C/C(=O)NCCc2ccccc2)ccc1O [Compound 16-D] | 39
COc1ccc(/C=C/C(=O)NC[C@H](OC)c2ccc(O)cc2)cc1O [Compound 11-E] | 41
COc1ccc([C@@H](CNC(=O)/C=C/c2cccc(OC)c2)OC)cc1 [Compound 10-H] | 72
O=C(/C=C/c1ccccc1)NC[C@@H](O)c1ccccc1 [Compound 12-A] | 26
CO[C@H](CNC(=O)/C=C/c1ccccc1)c1ccccc1 [Compound 8-A] | 70
COc1ccc(/C=C/C(=O)NC[C@H](O)c2ccc(O)cc2)cc1O [Compound 15-E] | 22
COc1cc(/C=C/C(=O)NC[C@@H](O)c2ccccc2)cc(OC)c1O [Compound 12-G] | 41
COc1cccc(/C=C/C(=O)NC[C@@H](O)c2ccccc2)c1 [Compound 12-H] | 51
COc1cc(/C=C/C(=O)NC[C@@H](OC)c2ccc(O)cc2)cc(OC)c1OC [Compound 9-F] | 13
COc1ccc([C@@H](CNC(=O)/C=C/c2ccc(O)cc2)OC)cc1 [Compound 10-B] | 60
CO[C@H](CNC(=O)/C=C/c1ccccc1)c1ccc(O)cc1 [Compound 9-A] | 24
COc1cc(/C=C/C(=O)NC[C@@H](OC)c2ccccc2)cc(OC)c1OC [Compound 8-F] | 31
CO[C@H](CNC(=O)/C=C/c1ccc(O)c(O)c1)c1ccc(O)cc1 [Compound 9-C] | −12
COc1cc(/C=C/C(=O)NC[C@H](OC)c2ccc(O)cc2)ccc1O [Compound 11-D] | 34
COc1ccc([C@@H](CNC(=O)/C=C/c2ccc(O)c(O)c2)OC)cc1 [Compound 10-C] | −8
COc1ccc(CCNC(=O)/C=C/c2ccc(O)c(OC)c2)cc1 [Compound 18-D] | 66
O=C(/C=C/c1ccc(O)cc1)NCCc1ccccc1 [Compound 16-B] | 66
COc1cc(/C=C/C(=O)NC[C@@H](O)c2ccccc2)cc(OC)c1OC [Compound 12-F] | 33
O=C(/C=C/c1ccc(O)c(O)c1)NCCc1ccc(O)cc1 [Compound 17-C] | 15
COc1ccc([C@H](O)CNC(=O)/C=C/c2cccc(OC)c2)cc1 [Compound 14-H] | 38

Structure (SMILES) | Induction of death in U-937 cells (percentages of cell death) [%]
COc1ccc(CCNC(=O)/C=C/c2cccc(OC)c2)cc1 [Compound 18-H] | 56
COc1ccc([C@@H](CNC(=O)/C=C/c2ccccc2)OC)cc1 [Compound 10-A] | 51
COc1ccc(CCNC(=O)/C=C/c2ccc(O)cc2)cc1 [Compound 18-B] | 17
COc1cccc(/C=C/C(=O)NCCc2ccccc2)c1 [Compound 16-H] | 57
COc1ccc([C@H](O)CNC(=O)/C=C/c2ccc(O)cc2)cc1 [Compound 14-B] | 27
O=C(/C=C/c1ccc(O)c(O)c1)NCCc1ccccc1 [Compound 16-C] | 24
O=C(/C=C/c1ccccc1)NCCc1ccccc1 [Compound 16-A] | 58
O=C(/C=C/c1ccc(O)c(O)c1)NC[C@@H](O)c1ccc(O)cc1 [Compound 13-C] | −36
COc1cc(/C=C/C(=O)NC[C@@H](OC)c2ccccc2)ccc1O [Compound 8-D] | 20
COc1ccc([C@@H](CNC(=O)/C=C/c2cc(OC)c(OC)c(OC)c2)OC)cc1 [Compound 10-F] | 45
CO[C@@H](CNC(=O)/C=C/c1ccc(O)c(O)c1)c1ccc(O)cc1 [Compound 11-C] | −9
CO[C@@H](CNC(=O)/C=C/c1ccccc1)c1ccc(O)cc1 [Compound 11-A] | 26
CO[C@H](CNC(=O)/C=C/c1ccc(O)cc1)c1ccccc1 [Compound 8-B] | 34
COc1cc(/C=C/C(=O)NC[C@@H](O)c2ccc(O)cc2)cc(OC)c1OC [Compound 13-F] | 22
COc1cccc(/C=C/C(=O)NC[C@@H](OC)c2ccc(O)cc2)c1 [Compound 9-H] | 38
COc1cc(/C=C/C(=O)NC[C@H](OC)c2ccc(O)cc2)cc(OC)c1OC [Compound 11-F] | 27
COc1ccc(/C=C/C(=O)NC[C@@H](O)c2ccccc2)cc1O [Compound 12-E] | 28
COc1cc(/C=C/C(=O)NC[C@@H](OC)c2ccccc2)cc(OC)c1O [Compound 8-G] | −3
COc1ccc(CCNC(=O)/C=C/c2ccc(OC)c(O)c2)cc1 [Compound 18-E] | 73
COc1ccc(/C=C/C(=O)NC[C@@H](OC)c2ccc(O)cc2)cc1O [Compound 9-E] | 41
COc1ccc([C@@H](CNC(=O)/C=C/c2ccc(O)c(OC)c2)OC)cc1 [Compound 10-D] | 31
COc1ccc([C@@H](CNC(=O)/C=C/c2cc(OC)c(O)c(OC)c2)OC)cc1 [Compound 10-G] | 16
COc1ccc(/C=C/C(=O)NC[C@@H](OC)c2ccccc2)cc1O [Compound 8-E] | 56
COc1cccc(/C=C/C(=O)NCCc2ccc(O)cc2)c1 [Compound 17-H] | 41

Structure (SMILES) | Induction of death in U-937 cells (percentages of cell death) [%]
COc1ccc(CCNC(=O)/C=C/c2cc(OC)c(O)c(OC)c2)cc1 [Compound 18-G] | 35
O=C(/C=C/c1ccc(O)c(O)c1)NC[C@@H](O)c1ccccc1 [Compound 12-C] | 27
COc1ccc([C@H](O)CNC(=O)/C=C/c2ccc(O)c(OC)c2)cc1 [Compound 14-D] | 59
O=C(/C=C/c1ccc(O)cc1)NC[C@@H](O)c1ccccc1 [Compound 12-B] | 47
O=C(/C=C/c1ccccc1)NC[C@H](O)c1ccc(O)cc1 [Compound 15-A] | 27
COc1cccc(/C=C/C(=O)NC[C@@H](OC)c2ccccc2)c1 [Compound 8-H] | 60
O=C(/C=C/c1ccccc1)NC[C@@H](O)c1ccc(O)cc1 [Compound 13-A] | 43
O=C(/C=C/c1ccc(O)cc1)NCCc1ccc(O)cc1 [Compound 17-B] | 32
COc1ccc([C@H](O)CNC(=O)/C=C/c2ccc(O)c(O)c2)cc1 [Compound 14-C] | −15
COc1ccc([C@H](O)CNC(=O)/C=C/c2cc(OC)c(O)c(OC)c2)cc1 [Compound 14-G] | 48
COc1cc(/C=C/C(=O)NCCc2ccccc2)cc(OC)c1OC [Compound 16-F] | 30
COc1ccc([C@H](O)CNC(=O)/C=C/c2cc(OC)c(OC)c(OC)c2)cc1 [Compound 14-F] | 26
O=C(/C=C/c1ccc(O)cc1)NC[C@H](O)c1ccc(O)cc1 [Compound 15-B] | 39
COc1ccc([C@H](O)CNC(=O)/C=C/c2ccccc2)cc1 [Compound 14-A] | 28
COc1ccc([C@H](O)CNC(=O)/C=C/c2ccc(OC)c(O)c2)cc1 [Compound 14-E] | 35
COc1cc(/C=C/C(=O)NCCc2ccc(O)cc2)ccc1O [Compound 17-D] | 58
COc1cc(/C=C/C(=O)NC[C@H](O)c2ccc(O)cc2)cc(OC)c1OC [Compound 15-F] | 12
COc1ccc(CCNC(=O)/C=C/c2ccc(O)c(O)c2)cc1 [Compound 18-C] | 26
COc1ccc(/C=C/C(=O)NCCc2ccccc2)cc1O [Compound 16-E] | 60
COc1ccc(/C=C/C(=O)NC[C@@H](O)c2ccc(O)cc2)cc1O [Compound 13-E] | 43
COc1ccc(CCNC(=O)/C=C/c2cc(OC)c(OC)c(OC)c2)cc1 [Compound 18-F] | 40
COc1ccc(CCNC(=O)/C=C/c2ccccc2)cc1 [Compound 18-A] | 56
O=C(/C=C/c1ccc(O)cc1)NC[C@@H](O)c1ccc(O)cc1 [Compound 13-B] | 49
